According to ChEMBL document CHEMBL1821565, “I. Novel HCV NS5B polymerase inhibitors: discovery of indole 2-carboxylic acids with C3-heterocycles” (Bioorg Med Chem Lett, 2011):

Columns and labels:
Hepatitis C virus = experiment: Antiviral activity against HCV subtype 1b Con1 reduction in replicon RNA level using RT-PCR by cell based replicon assay; format: functional, organism-based, Hepacivirus hominis
[1] = Inhibition of HCV NS5B after 150 mins by [33P]-CTP incorporation assay; design: species or system Hepacivirus hominis
[2] = Hepatitis C virus, Con1, read-out: EC50

SMILES | EC50 (Hepatitis C virus; [2]) [µM] | IC50 [1] [µM] | EC50 (Hepatitis C virus)
O=C(O)c1c(-c2cccnc2F)c2cc(Cl)ccc2n1Cc1ccc(F)cc1F | > 25 | 0.3 | –
O=C(O)c1c(-n2ccccc2=O)c2cc(Cl)ccc2n1Cc1ccccc1F | 19 | 0.15 | –
O=C(O)c1c(-c2ccc[nH]c2=O)c2cc(Cl)ccc2n1Cc1ccc(F)cc1F | 10 | 0.035 | –
O=C(O)c1c(-c2c[nH]c(=O)[nH]c2=O)c2cc(Cl)ccc2n1Cc1ccc(F)cc1F | 10 | 0.047 | –
Nc1cc(Cn2c(C(=O)O)c(-c3ccc[nH]c3=O)c3cc(Cl)ccc32)ccn1 | 4.8 | 0.053 | –
Nc1cc(Cn2c(C(=O)O)c(-c3c[nH]c(=O)[nH]c3=O)c3cc(Cl)ccc32)ccn1 | 2 | 0.031 | –
Nc1cc(Cn2c(C(=O)O)c(N3CCNS3(=O)=O)c3cc(Cl)ccc32)ccn1 | – | > 20 | Not Active
Nc1cc(Cn2c(C(=O)O)c(N3CCCNS3(=O)=O)c3cc(Cl)ccc32)ccn1 | – | > 20 | Not Active
O=C(O)c1c(-c2ccc[nH]c2=O)c2cc(Br)ccc2n1Cc1ccc(F)cc1F | 7.6 | 0.043 | –
COc1ccc2c(c1)c(-c1ccc[nH]c1=O)c(C(=O)O)n2Cc1ccc(F)cc1F | 11 | 0.043 | –
CCOc1ccc2c(c1)c(-c1ccc[nH]c1=O)c(C(=O)O)n2Cc1ccc(F)cc1F | 20 | 0.12 | –
O=C(O)c1c(-c2ccc[nH]c2=O)c2cc(C3CC3)ccc2n1Cc1ccc(F)cc1F | > 50 | 0.56 | –
Cc1ccc2c(c1)c(-c1ccc[nH]c1=O)c(C(=O)O)n2Cc1ccc(F)cc1F | – | 0.046 | –
O=C(O)c1c(-c2ccc[nH]c2=O)c2cc(C(F)(F)F)ccc2n1Cc1ccc(F)cc1F | 4.8 | 0.025 | –
NC(=O)Nc1c(C(=O)O)n(Cc2cc(F)ccc2F)c2ccc(C(F)(F)F)cc12 | > 10 | 0.35 | –
O=C(O)c1c(-n2c(=O)[nH]c3nccnc3c2=O)c2cc(C(F)(F)F)ccc2n1Cc1cc(F)ccc1F | > 10 | 0.27 | –
O=C(O)c1c(-n2c(=O)[nH]c3cscc3c2=O)c2cc(C(F)(F)F)ccc2n1Cc1ccc(F)cc1F | 12 | 0.059 | –
Nc1cc(Cn2c(C(=O)O)c(-n3c(=O)[nH]c4cscc4c3=O)c3cc(C(F)(F)F)ccc32)ccn1 | 1.4 | 0.032 | –
Nc1cc(Cn2c(C(=O)O)c(-c3ccc[nH]c3=O)c3cc(C(F)(F)F)ccc32)ccn1 | 0.3 | 0.017 | –
O=C(O)c1[nH]c2ccc(Cl)cc2c1-c1ccccc1F | > 25 | 7.3 | –
Cn1c(C(=O)O)c(-c2ccccc2F)c2cc(Cl)ccc21 | > 25 | 1.3 | –
CC(=O)n1c(C(=O)O)c(-c2ccccc2F)c2cc(Cl)ccc21 | > 25 | 8.1 | –
O=C(O)c1c(-c2ccccc2F)c2cc(Cl)ccc2n1C(=O)c1ccccc1 | > 25 | 7.8 | –
Nc1ccccc1Cn1c(C(=O)O)c(-c2ccccc2F)c2cc(Cl)ccc21 | > 25 | 0.6 | –
O=C(O)c1c(-c2ccccc2F)c2cc(Cl)ccc2n1Cc1cccc(NCc2ccccc2)c1 | > 25 | 0.7 | –
O=C(O)c1cc2cc(Cl)ccc2n1Cc1ccccc1F | > 25 | 17 | –
COc1ccccc1-c1c(C(=O)O)n(Cc2ccccc2F)c2ccc(Cl)cc12 | > 25 | 10 | –

The next lines start with the values.

EC50 (Hepatitis C virus; [2]) [µM] | IC50 [1] [µM] | EC50 (Hepatitis C virus) | SMILES
> 25 | 1.1 | – | O=C(O)c1c(-c2ccc(F)cc2F)c2cc(Cl)ccc2n1Cc1cccc(Cl)c1
> 100 | – | – | O=C(O)c1c(-c2ccccc2F)c2cc(Cl)ccc2n1Cc1ccccc1
> 25 | 4.4 | – | O=C(O)c1c(-c2ccccc2F)c2cc(Cl)ccc2n1Cc1ccc2ccccc2c1
> 25 | 2.5 | – | Cc1cccc(Cn2c(C(=O)O)c(-c3ccccc3F)c3cc(Cl)ccc32)c1
> 25 | > 44 | – | O=C(O)c1c(-c2ccccc2F)c2cc(Cl)ccc2n1Cc1cccc(C(F)(F)F)c1
> 25 | 1.8 | – | O=C(O)c1c(-c2ccccc2F)c2cc(Cl)ccc2n1Cc1cccc(OC(F)(F)F)c1
> 25 | 0.3 | – | O=C(O)c1c(-c2ccccc2F)c2cc(Cl)ccc2n1Cc1cc(F)ccc1F
> 25 | 0.2 | – | Nc1cccc(Cn2c(C(=O)O)c(-c3ccccc3F)c3cc(Cl)ccc32)c1
> 25 | 1.3 | – | Cc1ccc(Cn2c(C(=O)O)c(-c3ccccc3F)c3cc(Cl)ccc32)cc1N
> 25 | 0.6 | – | CC(=O)Nc1cccc(Cn2c(C(=O)O)c(-c3ccccc3F)c3cc(Cl)ccc32)c1
> 25 | 1.3 | – | O=C(O)c1c(-c2ccccc2F)c2cc(Cl)ccc2n1Cc1cccnc1
> 25 | 1.2 | – | O=C(O)c1c(-c2ccccc2F)c2cc(Cl)ccc2n1Cc1ccncc1
> 25 | 1.4 | – | O=C(O)c1c(-c2ccccc2O)c2cc(Cl)ccc2n1Cc1cc(F)ccc1F
> 25 | 4.2 | – | O=C(O)c1c(-c2ccccc2)c2cc(Cl)ccc2n1Cc1cccc(Cl)c1
> 25 | 33 | – | O=C(O)c1c(-c2cccc(Cl)c2)c2cc(Cl)ccc2n1Cc1cccc(Cl)c1
> 25 | 30 | – | N#Cc1cccc(-c2c(C(=O)O)n(Cc3cccc(Cl)c3)c3ccc(Cl)cc23)c1
> 25 | 29 | – | O=C(O)c1c(-c2ccc3c(c2)OCO3)c2cc(Cl)ccc2n1Cc1cccc(Cl)c1
> 25 | > 48 | – | O=C(O)c1c(-c2ccc(F)cc2)c2cc(Cl)ccc2n1Cc1cccc(Cl)c1
> 25 | > 46 | – | O=C(O)c1c(-c2ccc(F)c(F)c2)c2cc(Cl)ccc2n1Cc1cccc(Cl)c1
